# Results reported in US20070015780A1, “Method of treating cancer with azaspirane compositions” (priority 2003, published 2007).
# Experiments:
# caspase-3 = assay: Activation of caspases in T84 colon carcinoma cells; type: cell-based, human; details: 10 hours
# Experimental: (§1) Activities of caspase-3 and caspase-9 were measured using […] assay kits (BioVision, CA). The procedure used was essentially the same as described in the manufacturer's instruction. Briefly, 7-day-old monolayers of T 84 cells in 100 mm dishes were treated with either vehicle (as control) or N,N,-diethyl-8,8-dipropyl-2-azaspiro[4,5]decane-2-propanamine dimaleate (Compound 1) at the indicated respective concentrations for 10 hours. After the treatment, cells were washed with PBS and the cell extracts were prepared by resuspending cells in 200 μl (˜10^8 cells) of lysis buffer provided in the kit. Cell debris was removed by centrifugation at 10,000×g for 30 min. Supernatants (50-100 μg of protein) were pre-incubated with 10 mM dithiothreitol, 50 mM HEPES, 10% sucrose, 0.1% CHAPS (pH 7.5) and the reaction was started with the addition of 100 μM of the appropriate substrate (DEVD-pNA for caspase-3 and LEHD-pNA for caspase-9). The assay plates (96-well) were incubated at 37° C. for 2 hours, and the yellow color resulting from the release of pNA was measured at 405 nm using an ELISA reader. Samples were run in triplicate and results were expressed as an average of three determinations.
# caspase-9 = assay: as above; type: cell-based, human; details: 10 hours
# Experimental: as §1
# Various Tumor Cell Lines = assay: NCI SRB tumor cell growth assay, summary over all cell lines; type: cell-based
# Experimental: (§2) An in vitro assay which tested the ability of N,N,-diethyl-8,8-dipropyl-2-azaspiro[4,5]decane-2-propanamine dimaleate (Compound 1) to inhibit the growth of known cancer cell lines was performed by the National Cancer Institute in accordance with standard procedures. See: Lin, Z. X., Hoult, J. R., and Raman, A. Sulphorhodamine B assay for measuring proliferation of a pigmented melanocyte cell line and its application to the evaluation of crude drugs used in the treatment of vitiligo. J Ethnopharmacol. 66: 141-150, 1999. Briefly, selected tumor cell lines were cultured in media containing five different concentrations of Compound 1. After 48 hours of continuous exposure, a sulforhodamine B (SRB) assay was used to estimate cell viability or growth via optical measurements.
# (§3) From the measurements, the following values were determined: 1) the concentration of Compound 1 at which a tumor cell growth inhibition of 50% (relative to control) occurs (GI50), 2) the concentration of Compound 1 at which no growth occurs (total growth inhibition, TGI), and 3) the concentration of Compound 1 at which the […] (LC 50). […] FIG. 6 illustrates, graphically, tumor cell growth as a function of Compound 1 concentration of the scanned tumor cell lines.
# HS 578T = assay: NCI SRB tumor cell growth assay, Breast Cancer; type: cell-based
# Experimental: as §2, §3
# [1] = tested on: chorioallantoic membrane (CAM); assay: Anti-angiogenesis CAM assay; type: in vivo, White Leghorn eggs; details: ten eggs, 48 hours
# Experimental: The dosing was effected by pipetting 40 μl of the indicated solution onto a 13 mm round Thermanox® coverslip and allowing it to air dry. After the material appeared dry, the coverslip was placed onto the chorioallantoic membrane (CAM) of each egg insuring contact of the dried test article with the CAM. After dosing, the eggs were returned to the incubator for approximately 48 hours. Following the 48 hour exposure period, the eggs were removed from the incubator, observed for viability, and the exposed area under the coverslip was examined for loss of vasculature.
# HUVEC cells = assay: Induction of apoptosis, DNA fragmentation analysis; type: cell-based, human; details: 16 hours
# Experimental: (§4) T84, CaCo-2 and HUVEC cells, respectively, were grown in 100 mm dishes for 7-9 days, culture media for HUVEC was EGM-2 (Clonetics, BioWhitaker Co.), until they reached semi-confluency. Cell monolayers were then treated for 12 hours (CaCo-2 and T84) and 16 hours (HUVEC), respectively, at the indicated concentrations of N,N,-diethyl-8,8-dipropyl-2-azaspiro[4,5]decane-2-propanamine dimaleate (Compound 1) in culture media. Cells were collected by trypsinization and the apoptotic DNA was isolated from these cells following the instructions of the DNA fragmentation analysis kit (Boehringer Mannheim Corp., Indianapolis, Ind.). The apoptotic DNA was evaluated using 1.5% agarose gel electrophoresis followed by staining with ethidium bromide. M denotes the lane containing molecular weight markers of DNA.
# T84 cells = assay: Induction of apoptosis, DNA fragmentation analysis; type: cell-based, human; details: 12 hours
# Experimental: as §4
# CaCo-2 cells = assay: Induction of apoptosis, DNA fragmentation analysis; type: cell-based, human; details: 12 hours
# Experimental: as §4
SMILES,caspase-3 activity (caspase-3),caspase-9 activity (caspase-9),"Log10 LC50, MG_MID (Various Tumor Cell Lines)",Log10 TGI (HS 578T),Dead Eggs ([1]; Dose Per Egg 25 μg),Dead Eggs ([1]; Dose Per Egg 50 μg),Dead Eggs ([1]; Dose Per Egg 100 μg),Dead Eggs ([1]; Dose Per Egg 200 μg),Dead Eggs ([1]; Dose Per Egg 400 μg),DNA laddering (apoptosis) (HUVEC cells),DNA laddering (apoptosis) (T84 cells),DNA laddering (apoptosis) (CaCo-2 cells)
"CCCC1(CCC)CCC2(CCN(CCCN(CC)CC)C2)CC1.O=C(O)/C=C\C(=O)O.O=C(O)/C=C\C(=O)O [Compound 1, N,N,-diethyl-8,8-dipropyl-2-azaspiro[4,5]decane-2-propanamine dimaleate]",activation,activation,−5.06,−5.40,0,0,4,3,7,formation of DNA laddering in a dose-dependent manner,formation of DNA laddering in a dose-dependent manner,formation of DNA laddering in a dose-dependent manner
"O=C1CCC(N2C(=O)c3ccccc3C2=O)C(=O)N1 (stereo not shown) [Thalidomide, reference compound]",,,,,,,0,,,,,
